Source: article PMC6364417, “Kinase inhibitor library screening identifies synergistic drug combinations effective in sensitive and resistant melanoma cells” (Journal of Experimental & Clinical Cancer Research : CR, 2019)

Assays:
Test in all cases: Kinase inhibitor library screening, PrestoBlue cell viability, 1 or 10 μM, 72 h
[1] = system: 501Mel cells (parental); conditions: 501Mel Parental, 72 h, in %
How it was run: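 Kinase inhibitors added at two fixed concentrations; 72 h exposure; PrestoBlue readout; % viability vs untreated; n ≥ 2 per line.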

[2] = system: 501Mel-GP cells (Dabrafenib-resistant); conditions: 501Mel GP, 72 h, in %
[3] = system: 501Mel-XP cells (Vemurafenib-resistant); conditions: 501Mel XP, 72 h, in %
[4] = system: A375 cells (parental); conditions: A375 Parental, 72 h; for cell viability, A375 Parental, 1μΜ / cell viability, A375 Parental, 10μΜ: in %
[5] = system: A375-GP cells (Dabrafenib-resistant); conditions: A375 GP, 72 h; for cell viability, A375 GP, 1μΜ / cell viability, A375 GP, 10μΜ: in %
[6] = system: A375-XP cells (Vemurafenib-resistant); conditions: A375 XP, 72 h; for cell viability, A375 XP, 1μΜ / cell viability, A375 XP, 10μΜ: in %
[7] = system: IGR37 cells (parental); conditions: IGR37 Parental, 72 h, in %
[8] = system: IGR37-GP cells (Dabrafenib-resistant); conditions: IGR37 GP, 72 h; for cell viability, IGR37 GP, 1μΜ / Cell viability in kinase inhibitor library screening, IGR37 GP, 1μΜ: in %
[9] = system: IGR37-XP cells (Vemurafenib-resistant); conditions: IGR37 XP, 72 h; for cell viability, IGR37 XP, 1μΜ / Cell viability in kinase inhibitor library screening, IGR37 XP, 1μΜ: in %

Compound | cell viability, 501Mel Parental, 1μΜ [1] | cell viability, 501Mel Parental, 10μΜ [1] | cell viability, 501Mel GP, 10μΜ [2] | cell viability, 501Mel XP, 1μΜ [3] | cell viability, 501Mel XP, 10μΜ [3] | cell viability, A375 Parental, 1μΜ [4] | cell viability, A375 Parental, 10μΜ [4] | cell viability, A375 GP, 1μΜ [5] | cell viability, A375 GP, 10μΜ [5] | cell viability, A375 XP, 1μΜ [6] | cell viability, A375 XP, 10μΜ [6] | cell viability, IGR37 Parental, 1μΜ ([7]; 1μΜ) | cell viability, IGR37 Parental, 10μΜ [7] | cell viability, IGR37 GP, 10μΜ [8] | cell viability, IGR37 GP, 1μΜ [8] | cell viability, IGR37 XP, 10μΜ [9] | cell viability, IGR37 XP, 1μΜ [9] | Cell viability in kinase inhibitor library screening, 501Mel Parental, 1μΜ [1] | Cell viability in kinase inhibitor library screening, 501Mel Parental, 10μΜ [1] | Cell viability in kinase inhibitor library screening, 501Mel GP, 1μΜ [2] | other results
Cc1cnc(Nc2ccc(OCCN3CCCC3)cc2)nc1Nc1cccc(S(=O)(=O)NC(C)(C)C)c1 [TG101348 (SAR302503)] | 98.7 | 1.4 | 1.0 | 89.8 | -0.1 | 100.2 | 12.9 | 89.1 | 15.0 | 99.7 | 17.0 | 98.0 | 21.1 | 6.2% | 95.7 | 2% | 94.2 |  |  |  | 
Nc1nc(N)c2nc(-c3cccc(O)c3)cnc2n1 [TG 100713] |  |  |  |  |  |  |  |  |  |  |  |  |  |  |  |  |  | 94.5 | 56.1 | 98.4 | Cell viability in kinase inhibitor library screening, 501Mel GP, 10μΜ [2]: 36.6; Cell viability in kinase inhibitor library screening, 501Mel XP, 1μΜ [3]: 90.7; Cell viability in kinase inhibitor library screening, 501Mel XP, 10μΜ [3]: 26.9; Cell viability in kinase inhibitor library screening, A375 Parental, 10μΜ [4]: 43.8; Cell viability in kinase inhibitor library screening, A375 Parental, 1μΜ [4]: 94.5; Cell viability in kinase inhibitor library screening, A375 GP, 1μΜ [5]: 94.1; Cell viability in kinase inhibitor library screening, A375 GP, 10μΜ [5]: 37.7; Cell viability in kinase inhibitor library screening, A375 XP, 1μΜ [6]: 93.7; Cell viability in kinase inhibitor library screening, A375 XP, 10μΜ [6]: 40.5; Cell viability in kinase inhibitor library screening, IGR37 Parental, 10μΜ [7]: 49.5; Cell viability in kinase inhibitor library screening, IGR37 GP, 10μΜ [8]: 58.8%; Cell viability in kinase inhibitor library screening, IGR37 GP, 1μΜ [8]: 93.1; Cell viability in kinase inhibitor library screening, IGR37 XP, 10μΜ [9]: 21.2%; Cell viability in kinase inhibitor library screening, IGR37 XP, 1μΜ [9]: 97.8
Cc1cc(C(C)Nc2ccccc2)c2nc(N3CCOCC3)cc(=O)n2c1 (stereo not drawn) [TGX-221] |  |  |  |  |  |  |  |  |  |  |  |  |  |  |  |  |  | 99.4 | 97.1 | 102.9 | Cell viability in kinase inhibitor library screening, 501Mel GP, 10μΜ [2]: 78.5; Cell viability in kinase inhibitor library screening, 501Mel XP, 1μΜ [3]: 92.5; Cell viability in kinase inhibitor library screening, 501Mel XP, 10μΜ [3]: 67.8; Cell viability in kinase inhibitor library screening, A375 Parental, 10μΜ [4]: 94.9; Cell viability in kinase inhibitor library screening, A375 Parental, 1μΜ [4]: 103.0; Cell viability in kinase inhibitor library screening, A375 GP, 1μΜ [5]: 95.9; Cell viability in kinase inhibitor library screening, A375 GP, 10μΜ [5]: 91.3; Cell viability in kinase inhibitor library screening, A375 XP, 1μΜ [6]: 107.8; Cell viability in kinase inhibitor library screening, A375 XP, 10μΜ [6]: 99.8; Cell viability in kinase inhibitor library screening, IGR37 Parental, 1μΜ ([7]; 1μΜ): 97.4; Cell viability in kinase inhibitor library screening, IGR37 Parental, 10μΜ [7]: 96.6; Cell viability in kinase inhibitor library screening, IGR37 GP, 10μΜ [8]: 85.9%; Cell viability in kinase inhibitor library screening, IGR37 GP, 1μΜ [8]: 93.0; Cell viability in kinase inhibitor library screening, IGR37 XP, 10μΜ [9]: 61.6%; Cell viability in kinase inhibitor library screening, IGR37 XP, 1μΜ [9]: 95.0
Nc1cccc(-c2cc3c(Oc4cccc(O)c4)ncnc3[nH]2)c1 [TWS119] | 90.4 | 35.3 | 40.8 | 95.3 | 26.6 | 93.6 | 29.8 | 97.7 | 41.9 | 96.8 | 67.4 | 100.4 | 65.2 | 61.4% | 96.5 | 33.3% | 80.5 |  |  |  | 
